Reference: publication PMC8611036, “An integrated method for optimized identification of effective natural inhibitors against SARS-CoV-2 3CLpro” (Scientific Reports, 2021)
Non-standard residues stand in square brackets, D forms with d. Residues, ends and D or L forms follow the SMILES beside them. 2Thi = N[C@@H](Cc1cccs1)C(=O)O; Cha = N[C@@H](CC1CCCCC1)C(=O)O

Key:
SARS-CoV 3CLpro = type: biochemical; conditions: activity class by pIC50 threshold 6
SARS-CoV-2 3CLpro = SARS-CoV-2 3CLpro (Severe acute respiratory syndrome coronavirus 2, UniProt P0DTD1); conditions: SARS-CoV pIC50 multiplied by similarity index (SI), training set compounds

SMILES	Inact.(<6)/Act.(>=6) (SARS-CoV 3CLpro)	SI*pIC50 (SARS-CoV-2 3CLpro)
O=[N+]([O-])c1ccccc1SSc1ncccn1 [CMP270]	Act. (Act.(>=6))	
CC(=O)Oc1cc2c(cc1C(C)C)CC[C@H]1[C@](C)(CO)CCC[C@]21C [CMP207]	Inact. (Inact.(<6))	
O=C(Oc1cncc(Cl)c1)c1ccc(-c2ccc(Cl)cc2[N+](=O)[O-])o1 [CMP280]	Act. (Act.(>=6))	
CC1CCN(S(=O)(=O)c2ccc3c(c2)C(=O)C(=O)N3C)CC1 [CMP247]	Inact. (Inact.(<6))	
O=C(Nc1ccc(Cl)cc1)c1ccc(CN2C(=O)C(=O)c3cc(I)ccc32)s1 [CMP99]		5.052
COc1ncccc1-c1ccc(N(Cc2ccsc2)C(=O)Cn2nnc3ccccc32)cc1 [CMP225]	Act. (Act.(>=6))	
O=C(Oc1cncc(Cl)c1)c1ccccc1[N+](=O)[O-] [CMP279]	Act. (Act.(>=6))	
CC(=O)N[C@@H](CO)C(=O)N[C@@H](C)C(=O)N[C@H](C(=O)N[C@@H](CC(C)C)C(=O)N[C@H](C=O)Cc1cccs1)C(C)C [CMP216] (Ac-SAVL[2Thi]-aldehyde)	Inact. (Inact.(<6))	
Cn1cnc(C(=O)N(c2ccc(C(C)(C)C)cc2)C(C(=O)NC(C)(C)C)c2cccnc2)c1 (stereo not shown) [CMP206]	Inact. (Inact.(<6))	
CC1CC(C)CN(S(=O)(=O)c2ccc3c(c2)C(=O)C(=O)N3)C1 (stereo not shown) [CMP255]	Inact. (Inact.(<6))	
O=C(Oc1cncc(Cl)c1)c1ccc(-c2ccc(Cl)cc2)o1 [CMP277]	Act. (Act.(>=6))	
O=C1C(=O)N(C/C=C/c2cc3ccccc3s2)c2ccc(I)cc21 [CMP98]		4.781
CC(C)(C)NC(=O)C(c1ccnnc1)N(C(=O)c1ccco1)c1ccc(C(C)(C)C)cc1 (stereo not shown) [CMP203]	Inact. (Inact.(<6))	
CN1C(=O)C(=O)c2cc(S(=O)(=O)N3CCN(CCc4ccccc4)CC3)ccc21 [CMP244]	Inact. (Inact.(<6))	
O=C(Oc1cncc(Cl)c1)c1ccncc1 [CMP167]	Act. (Act.(>=6))	
CC1CCN(S(=O)(=O)c2ccc3c(c2)C(=O)C(=O)N3Cc2ccccc2)CC1 [CMP248]	Inact. (Inact.(<6))	
O=C(Oc1cncc(Cl)c1)c1ccc(Cl)cc1 [CMP165]	Act. (Act.(>=6))	
CC(=O)N[C@@H](CO)C(=O)N[C@H](C(=O)N[C@@H](CC1CCCCC1)C(=O)N[C@H](C=O)Cc1c[nH]cn1)C(C)C [CMP218] (Ac-SV[Cha]H-aldehyde)	Act. (Act.(>=6))	
O=C(Nc1ccc(N(Cc2ccsc2)C(=O)Cn2nnc3ccccc32)cc1)C1CC1 [CMP195]	Inact. (Inact.(<6))	
COc1ncc(-c2ccc(N(Cc3ccsc3)C(=O)Cn3nnc4ccccc43)cc2)cn1 [CMP222]	Inact. (Inact.(<6))	
O=C[C@H](Cc1cnc[nH]1)NC[C@@H]1C[C@H]2CCCC[C@@H]2CN1C(=O)c1ccc(-c2ccccc2)cc1 [CMP259]	Inact. (Inact.(<6))	
CC(=O)Nc1cnc(SSc2ccccc2[N+](=O)[O-])s1 [CMP271]	Inact. (Inact.(<6))	
CC(C)(C)NC(=O)C(c1cccnc1)N(C(=O)C1=NC=NC1)c1ccc(C(C)(C)C)cc1 (stereo not shown) [CMP234]	Inact. (Inact.(<6))	
CN1CCN(S(=O)(=O)c2ccc3c(c2)C(=O)C(=O)N3Cc2ccccc2)CC1 [CMP242]	Inact. (Inact.(<6))	
COc1cc(CN2CCN(S(=O)(=O)c3ccc4c(c3)C(=O)C(=O)N4)CC2)cc(OC)c1OC [CMP236]	Inact. (Inact.(<6))	
Cc1cc(C)nc(SSc2ccccc2[N+](=O)[O-])n1 [CMP274]	Act. (Act.(>=6))	
CC1CCCCN1S(=O)(=O)c1ccc2c(c1)C(=O)C(=O)N2 (stereo not shown) [CMP240]	Inact. (Inact.(<6))	
CC(=O)N[C@@H](CC(N)=O)C(=O)N[C@H](C(=O)N[C@@H](CC1CCCCC1)C(=O)N[C@H](C=O)Cc1c[nH]cn1)C(C)C [CMP217] (Ac-NV[Cha]H-aldehyde)	Inact. (Inact.(<6))	
